We go through five compounds from patent publication EP0908457B1, “3-(1,2-benzisothiazol- and isoxazol-5-Y1)-2,4(1H,3H)-pyrimidinedione or thione and 3-(1,2-benzisothiazol- and isoxazol-5-y1)-4(3H)-pyrimidinone or thione herbicidal agents” (BASF AKTIENGESELLSCHAFT, priority 1997, dated 1999).

Each structure is given as a SMILES string.

For series [1], the system named is Monochoria vaginalis, Presl. Nature of the series: Preemergence weed control under flooded paddy conditions, MOOVA (Monochoria). As to herbicidal effect rating, MOOVA: meaning of each grade not given here. It is filed as in vivo. Conditions: flooded paddy; for herbicidal effect rating, MOOVA / MOOVA herbicidal effect rating: preemergence; for MOOVA: preemergence weeds, herbicidal effect rating 0-9, three to four weeks after treatment.
In another series the test system is Sagittaria pygmaea, L. Nature of the series: Preemergence weed control under flooded paddy conditions, SAGPY (Arrowhead (Pygmaea)). As to herbicidal effect rating, SAGPY: meaning of each grade not given here. The series is classed as in vivo. Conditions: flooded paddy; for herbicidal effect rating, SAGPY / SAGPY herbicidal effect rating: preemergence; for SAGPY: preemergence weeds, herbicidal effect rating 0-9, three to four weeks after treatment.

Series [2] deals with Oryza sativa, (L.) Tebonnet. Nature of the series: Rice tolerance to post-transplant applications under flooded paddy conditions (Example 187), ORYSAT (Rice, Tebonnet). As to herbicidal effect rating ORYSAT: meaning of each grade not given here. Conditions: for ORYSAT: herbicidal effect rating 0-9, three to four weeks after treatment.
In the next series the test system is Cyperus iria. Nature of the series: Preemergence weed control under flooded paddy conditions, CYPIR (Rice Flatsedge). As to herbicidal effect rating, CYPIR: meaning of each grade not given here. The series is classed as in vivo. Conditions: flooded paddy; for herbicidal effect rating, CYPIR / CYPIR herbicidal effect rating: preemergence; for CYPIR: preemergence weeds, herbicidal effect rating 0-9, three to four weeks after treatment.
Series [3] deals with Cyperus serotinus, Rottb. Nature of the series: Preemergence weed control under flooded paddy conditions, CYPSE (Flatsedge). As to herbicidal effect rating, CYPSE: meaning of each grade not given here. The series is classed as in vivo. Conditions: for herbicidal effect rating, CYPSE / CYPSE herbicidal effect rating: preemergence; for CYPSE: preemergence weeds, herbicidal effect rating 0-9, three to four weeks after treatment.
For series [4], the system named is Echinochloa oryzoides (Ard.) Fritsch. Nature of the series: Preemergence weed control under flooded paddy conditions, ECHORC (Watergrass (Calif.)). As to herbicidal effect rating, ECHORC: meaning of each grade not given here. The series is classed as in vivo. Conditions: flooded paddy; for herbicidal effect rating, ECHORC / ECHORC herbicidal effect rating: preemergence; for ECHORC: preemergence weeds, herbicidal effect rating 0-9, three to four weeks after treatment.

Where [5] appears, read: Rate 0.0320 kg/ha, rated three to four weeks after treatment.
[6] abbreviates: Rate 0.0620 kg/ha, rated three to four weeks after treatment.
Setting [7] is: Rate 0.1250 kg/ha, rated three to four weeks after treatment.
[8] abbreviates: Rate 0.2500 kg/ha, rated three to four weeks after treatment.
Setting [9] is: Rate 0.0313 kg/ha, rated three to four weeks after treatment.
[10] abbreviates: Rate 0.0625 kg/ha, rated three to four weeks after treatment.
The mark [11] stands for this setting: Rate 0.0320 kg/ha, rated 3-4 weeks after treatment.
The mark [12] stands for this setting: Rate 0.0620 kg/ha, rated 3-4 weeks after treatment.
Setting [13] is: Rate 0.1250 kg/ha, rated 3-4 weeks after treatment.
The mark [14] stands for this setting: Rate 0.2500 kg/ha, rated 3-4 weeks after treatment.

On to `Cn1c(C(F)(F)F)cc(=O)n(-c2ccc3snc(C(C#N)=Cc4ccncc4)c3c2)c1=O` [Example 596, 1,2-Benzisothiazole-3-acetonitrile, 5-[3,6-dihydro-3-methyl-2,6-dioxo-4-(trifluoromethyl)-1(2H)-pyrimidinyl]-alpha-(4-pyridylmethylene)-], for which the “herbicidal effect rating, MOOVA” value in series [1] (setting [5]) worked out at 3.0; in series [1] (setting [6]) it was 4.0; in series [1] (setting [7]), 7.0; in series [1] (setting [8]), 9.0. The “herbicidal effect rating, SAGPY” value amounted to 0.0 in the series with Sagittaria pygmaea, L. (setting [5]); 0.0 in the series with Sagittaria pygmaea, L. (setting [6]); 2.0 with Sagittaria pygmaea, L. (setting [7]); 6.0 in the series with Sagittaria pygmaea, L. (setting [8]). The “herbicidal effect rating ORYSAT” value in series [2] (setting [5]) was found to be 0.0; in series [2] (setting [6]) it was 3.0; in series [2] (setting [7]), 4.0; in series [2] (setting [8]), 6.0. Moreover, the “herbicidal effect rating, CYPIR” value with Cyperus iria (setting [5]), with Cyperus iria (setting [6]), in the series with Cyperus iria (setting [7]) and in the series with Cyperus iria (setting [8]) was 0.0 in each case. In addition, the “herbicidal effect rating, CYPSE” value in series [3] (setting [5]), in series [3] (setting [6]), in series [3] (setting [7]) and in series [3] (setting [8]) was 0.0 throughout. The “herbicidal effect rating, ECHORC” value in series [4] (setting [5]) amounted to 0.0; in series [4] (setting [6]), 4.0; in series [4] (setting [7]), 5.0; in series [4] (setting [8]), 7.0.
As to `C#CCn1c(C(F)(F)F)cc(=O)n(-c2ccc3snc(C)c3c2)c1=O` [Example 217, 3-(3-Methyl-1,2-benzisothiazol-5-yl)-1-(2-propynyl)-6-(trifluoromethyl)-2,4(1H,3H)-pyrimidinedione], the “MOOVA herbicidal effect rating” value is 2.0 in series [1] (setting [9]), 4.0 in series [1] (setting [10]), 7.0 in series [1] (setting [7]) and 7.0 in series [1] (setting [8]). Moreover, the “SAGPY herbicidal effect rating” value is listed as 0.0 in the series on Sagittaria pygmaea, L. (setting [9]); 0.0 with Sagittaria pygmaea, L. (setting [10]); 0.0 in the series with Sagittaria pygmaea, L. (setting [7]); 0.0 with Sagittaria pygmaea, L. (setting [8]). Moreover, the “ORYSAT herbicidal effect rating” value in series [2] (setting [9]) worked out at 2.0; in series [2] (setting [10]), 2.0; in series [2] (setting [7]) it was 3.0; in series [2] (setting [8]) it was 4.0. The “CYPIR herbicidal effect rating” value in the series on Cyperus iria (setting [9]), in the series with Cyperus iria (setting [10]), in the series with Cyperus iria (setting [7]) and in the series with Cyperus iria (setting [8]) was 0.0 each time. For the same compound, the “CYPSE herbicidal effect rating” value in series [3] (setting [9]), in series [3] (setting [10]), in series [3] (setting [7]) and in series [3] (setting [8]) was 0.0 each time. The “ECHORC herbicidal effect rating” value in series [4] (setting [9]), in series [4] (setting [10]), in series [4] (setting [7]) and in series [4] (setting [8]) was 0.0 each time.
For the compound `Cn1c(C(F)(F)F)cc(=O)n(-c2ccc3snc(C(=O)NS(=O)(=O)Cc4ccc(C(C)(C)C)cc4)c3c2)c1=O` [Example 405, 1,2-Benzisothiazole-3-carboxamide, N-[(p-tert-butylbenzyl)sulfonyl]-5-[3,6-dihydro-3-methyl-2,6-dioxo-4-(trifluoromethyl)-1(2H)-pyrimidinyl]-], the MOOVA in series [1] (0.0320 kg/ha) is listed as 6.0; in series [1] (0.0620 kg/ha), 6.0; in series [1] (0.1250 kg/ha) it was 7.0; in series [1] (0.2500 kg/ha), 7.0. The SAGPY in the series with Sagittaria pygmaea, L. (0.0320 kg/ha) turned out to be 0.0; with Sagittaria pygmaea, L. (0.0620 kg/ha) it was 0.0; in the series with Sagittaria pygmaea, L. (0.1250 kg/ha) it was 5.0; with Sagittaria pygmaea, L. (0.2500 kg/ha), 6.0. For the same compound, the ORYSAT in series [2] (0.0320 kg/ha) was 0.0; in series [2] (0.0620 kg/ha), 0.0; in series [2] (0.1250 kg/ha), 2.0; in series [2] (0.2500 kg/ha) it was 2.0. Besides, the CYPIR with Cyperus iria (0.0320 kg/ha) is given as 4.0; in the series on Cyperus iria (0.0620 kg/ha) it was 4.0; in the series with Cyperus iria (0.1250 kg/ha), 7.0; in the series with Cyperus iria (0.2500 kg/ha) it was 8.0. The CYPSE in series [3] (0.0320 kg/ha), in series [3] (0.0620 kg/ha), in series [3] (0.1250 kg/ha) and in series [3] (0.2500 kg/ha) was 0.0 in each case. The ECHORC in series [4] (0.0320 kg/ha) is listed as 7.0; in series [4] (0.0620 kg/ha) it was 7.0; in series [4] (0.1250 kg/ha), 9.0; in series [4] (0.2500 kg/ha), 9.0.
Turning to `C=CCOC(=O)C(C)(C)Oc1ccc(C)cc1-c1nsc2ccc(-n3c(=O)cc(C(F)(F)F)n(C)c3=O)cc12` [Example 530, Propionic acid, 2-{{2-{5-[3,6-dihydro-3-methyl-2,6-dioxo-4-(trifluoromethyl)-1(2H)-pyrimidinyl]-1,2-benzisothiazol-3-yl}-p-tolyl}oxy}-2-methyl-, allyl ester], the “herbicidal effect rating, MOOVA” value in series [1] (setting [11]), in series [1] (setting [12]), in series [1] (setting [13]) and in series [1] (setting [14]) was 9.0 throughout. Besides, the “herbicidal effect rating, SAGPY” value was determined as 0.0 in the series on Sagittaria pygmaea, L. (setting [11]); 0.0 in the series with Sagittaria pygmaea, L. (setting [12]); 3.0 in the series with Sagittaria pygmaea, L. (setting [13]); 9.0 in the series with Sagittaria pygmaea, L. (setting [14]). In addition, the “herbicidal effect rating ORYSAT” value in series [2] (setting [11]) is 0.0; in series [2] (setting [12]), 0.0; in series [2] (setting [13]), 3.0; in series [2] (setting [14]), 9.0. Besides, the “herbicidal effect rating, CYPIR” value was 0.0 in the series with Cyperus iria (setting [11]), 9.0 in the series on Cyperus iria (setting [12]), 9.0 with Cyperus iria (setting [13]) and 9.0 in the series on Cyperus iria (setting [14]). Also, the “herbicidal effect rating, CYPSE” value in series [3] (setting [11]), in series [3] (setting [12]), in series [3] (setting [13]) and in series [3] (setting [14]) was 0.0 in each case. The “herbicidal effect rating, ECHORC” value in series [4] (setting [11]), in series [4] (setting [12]), in series [4] (setting [13]) and in series [4] (setting [14]) was 9.0 in each case.
Take `Cn1c(C(F)(F)F)cc(=O)n(-c2ccc3snc(-c4ccccc4OCC(=O)NS(C)(=O)=O)c3c2)c1=O` [Example 268, Acetamide, 2-{o-{5-[3,6-dihydro-3-methyl-2,6-dioxo-4-(trifluoromethyl)-1(2H)-pyrimidinyl]-1,2-benzisothiazol-3-yl}phenoxy}-N-(methylsulfonyl)-]: the “MOOVA herbicidal effect rating” value was 7.5 in series [1] (setting [5]), 9.0 in series [1] (setting [6]), 9.0 in series [1] (setting [7]) and 9.0 in series [1] (setting [8]). The “SAGPY herbicidal effect rating” value in the series on Sagittaria pygmaea, L. (setting [5]) amounted to 0.0; in the series with Sagittaria pygmaea, L. (setting [6]) it was 1.0; in the series with Sagittaria pygmaea, L. (setting [7]) it was 1.0; in the series on Sagittaria pygmaea, L. (setting [8]), 4.0. Further, the “ORYSAT herbicidal effect rating” value in series [2] (setting [5]) is 3.5; in series [2] (setting [6]), 4.0; in series [2] (setting [7]) it was 5.0; in series [2] (setting [8]), 7.5. The “CYPIR herbicidal effect rating” value with Cyperus iria (setting [5]) stood at 1.0; in the series with Cyperus iria (setting [6]), 3.0; in the series with Cyperus iria (setting [7]) it was 6.0; in the series on Cyperus iria (setting [8]), 7.5. Moreover, the “CYPSE herbicidal effect rating” value in series [3] (setting [5]) was determined as 1.0; in series [3] (setting [6]), 5.5; in series [3] (setting [7]), 9.0; in series [3] (setting [8]), 9.0. Also, the “ECHORC herbicidal effect rating” value in series [4] (setting [5]) is given as 1.0; in series [4] (setting [6]) it was 3.0; in series [4] (setting [7]), 4.5; in series [4] (setting [8]) it was 4.5.
